The numbers were not newly measured in patent US20190328829A1, “TRIPARTITE COMBINATION THERAPY FOR PROSTATE CANCER” (UNIVERSITY OF MARYLAND, BALTIMORE, priority 2016, published 2019), which cites them from elsewhere.

The subject of one series is testosterone. The conditions noted are these: males, continuous administration.

As to `O=c1c(-c2ccc(O)cc2)coc2cc(O)cc(O)c12` [Genistein, 5,7-dihydroxy-3-(4-hydroxyphenyl)-chromen-4-one], the solubility in water entry is on record as “virtually insoluble in water”.
Take `CCNC(=O)[C@@H]1CCCN1C(=O)[C@H](CCCNC(=N)N)NC(=O)[C@H](CC(C)C)NC(=O)[C@@H](CC(C)C)NC(=O)[C@H](Cc1ccc(O)cc1)NC(=O)[C@H](CO)NC(=O)[C@H](Cc1c[nH]c2ccccc12)NC(=O)[C@H](Cc1c[nH]cn1)NC(=O)[C@@H]1CCC(=O)N1` [leuprolide acetate, Leuprolide acetate]: the “testosterone reduced to castrate levels” value with testosterone is listed as “below 50 ng/dL”.
